Measured values as given in patent US10463664B2, “Inhibitors of HSV nucleotidyl transferases and uses therefor” (Saint Louis University, priority 2013, dated 2019).
Blank lines part the entries; values can stand above or below the molecule they belong to.

Legend:
HSV-2 = test: Anti-HSV-2 replication assay in Vero cells, titer by plaque assay; format: cell-based, herpes simplex virus 2; conditions: for Anti-HSV-2 Log10 suppression 5 μM (screening symbol) / Anti-HSV-2 Log10 suppression 50 μM (screening symbol): visual inspection; for Anti-HSV-2 Log10 suppression 5 μM / Anti-HSV-2 Log10 suppression 50 μM: moi 0.1, 24 h, relative to DMSO; for Inhibition of HSV-2 replication (in words): primary screening
Procedure: (§1) Anti-HSV-1 and -HSV-2 Replication Assay. Compounds to be screened were diluted in PBS supplemented to contain 2% newborn calf serum and 1% glutamine, and added in 100 μL, volume to confluent cell monolayers in 24-well cluster plates. Immediately thereafter HSV-1 and HSV-2, diluted in the supplemented PBS medium, were added to the wells in 50 μl volume such that the final concentration of compound was 50 μM and 5 μM and the multiplicity of infection was 0.1. The plates were incubated at 37° C. for 1 hour and then virus-containing inoculum was removed and the wells were washed once in PBS. Compounds, diluted to 50 μM and 5 μM in DMEM supplemented to contain 2% newborn calf serum and 1% each penicillin/streptomycin, were added at 0.5 mL/well. Plates were incubated at 37° C. an additional 23 hr, and then the plates were visually inspected through a phase contrast microscope for cytopathic effect, and for toxic effect. […] The entire contents of each well were collected by scraping. Samples were frozen at −80° C., and then subsequently thawed, sonicated, and infectious virus titer was determined by standard plaque assay on Vero cell monolayers. Because the compounds were dissolved at 10 mM in 100% DMSO, equivalent dilutions of DMSO were added to additional wells as a control for effects of the diluent. Each experiment was repeated once. EC50 values were determined as above except that serial dilutions of the compound to be tested were prepared starting at 50 μM. The inhibitory values were calculated by non-linear curve-fitting in GraphPad Prism.
(§2) Monolayers were microscopically inspected 24 hours post-infection and wells in which more cells were visually healthier than the DMSO-treated controls were collected. Viral titers in the culture lysates were then determined by standard plaque assay on Vero cells. Inhibition of viral replication was categorized as <1 log10 relative to the DMSO-treated control, 1 to 3 log10 suppression, or ≥3 log10 suppression. […] Additionally, four polyoxygenated heterocycle compounds were tested (#128, 138, 139, 140).

HBV RNaseH = biological target: T1, HBV RNaseH (Hepatitis B virus genotype A2 subtype adw2, UniProt P03159); test: Biochemical inhibition of HBV RNaseH (oligonucleotide-directed RNA cleavage assay); conditions: compounds at 60, 20 or 10 μM
T1 construct: One of the inventors recently produced active recombinant HBV RNase H; hexahistidine; made in house; host or cells: E. coli
T1 sequence (P03159 693-845): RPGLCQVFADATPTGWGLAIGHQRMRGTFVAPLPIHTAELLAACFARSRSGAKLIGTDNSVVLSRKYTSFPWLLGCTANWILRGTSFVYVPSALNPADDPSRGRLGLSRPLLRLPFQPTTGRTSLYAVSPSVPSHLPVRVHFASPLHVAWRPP
Procedure: (§3) Biochemical inhibition of HBV RNaseH and human RNaseH1 activity. […] RNaseH activity was measured using an oligonucleotide-directed RNA cleavage assay in which a DNA oligonucleotide is annealed to an internally ^32P-labeled RNA, the RNA:DNA heteroduplex is incubated with the enzyme to permit cleavage, and then the RNA cleavage products are resolved by electrophoresis and detected by autoradiography. The compounds were included in the reaction mixes at 60, 20, or 10 μM and the amount of the RNA cleavage products in the compound-containing reactions was compared to reactions in which an equivalent concentration of DMSO was added as a vehicle control. The data were quantified using ImageJ.

HSV-1 = test: Anti-HSV-1 replication assay in Vero cells, titer by plaque assay; format: cell-based, herpes simplex virus 1; conditions: for Anti-HSV-1 Log10 suppression 5 μM (screening symbol) / Anti-HSV-1 Log10 suppression 50 μM (screening symbol): visual inspection; for Anti-HSV-1 Log10 suppression 5 μM / Anti-HSV-1 Log10 suppression 50 μM: moi 0.1, 24 h, relative to DMSO; for Inhibition of HSV-1 replication (in words): primary screening
Procedure: as §1, §2

human RNaseH1 = biological target: T2, human RNaseH1 (Homo sapiens, UniProt O60930); test: Biochemical inhibition of human RNaseH1 (oligonucleotide-directed RNA cleavage assay); conditions: compounds at 60, 20 or 10 μM
T2 construct: hexahistidine; made in house; host or cells: E. coli
T2 sequence (O60930 1-286): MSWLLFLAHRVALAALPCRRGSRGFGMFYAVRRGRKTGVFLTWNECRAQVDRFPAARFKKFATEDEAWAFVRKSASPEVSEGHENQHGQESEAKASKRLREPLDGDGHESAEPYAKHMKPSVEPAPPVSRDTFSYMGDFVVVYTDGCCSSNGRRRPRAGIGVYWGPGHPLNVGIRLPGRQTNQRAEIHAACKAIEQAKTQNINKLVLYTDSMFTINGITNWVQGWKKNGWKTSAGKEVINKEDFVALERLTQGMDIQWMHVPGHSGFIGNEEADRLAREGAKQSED
Procedure: as §3

- Anti-HBV RNaseH (HBV RNaseH): + (inhibition at 60 μM)
SMILES: CCOC(=O)c1sc(NC(=O)CSc2nnc(Cc3ccccc3)o2)c(C#N)c1C [Compound 6]
- Anti-HSV-2 Log10 suppression 5 μM (screening symbol) (HSV-2): −
- Anti-HSV-2 Log10 suppression 50 μM (screening symbol) (HSV-2): −
- Anti-HSV-1 Log10 suppression 5 μM (screening symbol) (HSV-1): −
- Anti-HSV-1 Log10 suppression 50 μM (screening symbol) (HSV-1): −

- Anti-HBV RNaseH (HBV RNaseH): − (no inhibition at 60 μM)
SMILES: CCOC(=O)c1sc(NC(=O)CSc2nnc(-c3ccc(Cl)cc3)o2)c(C#N)c1C [Compound 24]
- Anti-HSV-2 Log10 suppression 5 μM (screening symbol) (HSV-2): −
- Anti-HSV-2 Log10 suppression 50 μM (screening symbol) (HSV-2): −
- Anti-HSV-1 Log10 suppression 5 μM (screening symbol) (HSV-1): −
- Anti-HSV-1 Log10 suppression 50 μM (screening symbol) (HSV-1): −

- Anti-Human RNaseH1 (human RNaseH1): − (no inhibition at 60 μM)
- Anti-HBV RNaseH (HBV RNaseH): − (no inhibition at 60 μM)
SMILES: Cc1cc(C)n(O)c(=O)c1C#N [Compound 44]
- Anti-HSV-2 Log10 suppression 5 μM (screening symbol) (HSV-2): −
- Anti-HSV-2 Log10 suppression 50 μM (screening symbol) (HSV-2): −
- Anti-HSV-1 Log10 suppression 5 μM (screening symbol) (HSV-1): −
- Anti-HSV-1 Log10 suppression 50 μM (screening symbol) (HSV-1): −

- Anti-Human RNaseH1 (human RNaseH1): − (no inhibition at 60 μM)
SMILES: Nc1ccn(C[C@@H](CO)OCP(=O)(O)O)c(=O)n1 [CID, Cidofovir, reference compound]
- Anti-HSV-2 Log10 suppression 5 μM (HSV-2): 0.38 log10
- Anti-HSV-2 Log10 suppression 50 μM (HSV-2): 1.19 log10
- Inhibition of HSV-2 replication (in words) (HSV-2): negligible
- Anti-HSV-1 Log10 suppression 5 μM (HSV-1): 0.77 log10
- Anti-HSV-1 Log10 suppression 50 μM (HSV-1): 2.67 log10
- Inhibition of HSV-1 replication (in words) (HSV-1): negligible

SMILES: Cn1c(N2CCCCS2(=O)=O)nc(C(=O)NCc2ccc(F)cc2)c(O)c1=O [Compound 72]
- Inhibition of HSV-2 replication (in words) (HSV-2): negligible inhibition
- Inhibition of HSV-1 replication (in words) (HSV-1): negligible inhibition

SMILES: CC1=C(C#N)C(=O)NC(=O)C1=Cc1ccc(-c2ccccc2)o1 [Compound 140]
- Inhibition of HSV-2 replication (in words) (HSV-2): None of these compounds was particularly efficacious
- Inhibition of HSV-1 replication (in words) (HSV-1): None of these compounds was particularly efficacious

- Anti-HBV RNaseH (HBV RNaseH): +++ (inhibition at 10 μM)
SMILES: Cc1sc2nc(-c3ccc([N+](=O)[O-])cc3)[nH]c(=O)c2c1C [Compound 38]
- Anti-HSV-2 Log10 suppression 5 μM (HSV-2): 0.11 log10
- Anti-HSV-2 Log10 suppression 50 μM (HSV-2): −0.05 log10
- Anti-HSV-1 Log10 suppression 5 μM (HSV-1): −0.07 log10
- Anti-HSV-1 Log10 suppression 50 μM (HSV-1): 0.07 log10

SMILES: O=C1CCC(=O)N1O [Compound 139]
- Inhibition of HSV-2 replication (in words) (HSV-2): None of these compounds was particularly efficacious
- Inhibition of HSV-1 replication (in words) (HSV-1): None of these compounds was particularly efficacious

SMILES: O=C1c2ccc3ccccc3c2C(=O)N1[O-].[Na+] [Compound 128]
- Inhibition of HSV-2 replication (in words) (HSV-2): None of these compounds was particularly efficacious
- Inhibition of HSV-1 replication (in words) (HSV-1): None of these compounds was particularly efficacious

SMILES: O=C1c2ccccc2C(=O)N1O [Compound 138]
- Inhibition of HSV-2 replication (in words) (HSV-2): None of these compounds was particularly efficacious
- Inhibition of HSV-1 replication (in words) (HSV-1): None of these compounds was particularly efficacious

SMILES: Cn1c(C(C)(C)NC(=O)c2ccccc2)nc(C(=O)NCc2ccc(F)cc2)c(O)c1=O [Compound 121]
- Inhibition of HSV-2 replication (in words) (HSV-2): negligible inhibition
- Inhibition of HSV-1 replication (in words) (HSV-1): negligible inhibition

SMILES: O=C(Oc1cccccc1=O)c1ccc(Cl)cc1 [Compound 63]
- Inhibition of HSV-2 replication (in words) (HSV-2): negligible inhibition
- Inhibition of HSV-1 replication (in words) (HSV-1): negligible inhibition

- Anti-HBV RNaseH (HBV RNaseH): + (inhibition at 60 μM)
SMILES: COC(=O)Oc1nsnc1N1CCOCC1 [Compound 4]
- Anti-HSV-2 Log10 suppression 5 μM (screening symbol) (HSV-2): −
- Anti-HSV-2 Log10 suppression 50 μM (screening symbol) (HSV-2): −
- Anti-HSV-1 Log10 suppression 5 μM (screening symbol) (HSV-1): −
- Anti-HSV-1 Log10 suppression 50 μM (screening symbol) (HSV-1): −

SMILES: O=C1C(=O)C(c2ccc(O)c(O)c2)Oc2cc(O)cc(O)c21 (stereo not shown) [Compound 134]
- Inhibition of HSV-2 replication (in words) (HSV-2): negligible inhibition
- Inhibition of HSV-1 replication (in words) (HSV-1): negligible inhibition
